Data on seven molecules can be found in article PMC12163822, “Synthesis and Pharmacological Characterization of a Novel Cannabinoid Receptor 1 Antagonist” (ACS Omega, 2025).

Molecules are shown by their SMILES.

The target in the assay is cannabinoid receptors. In words: [3H]CP55,940 competition binding in rat brain cortex membrane homogenates. Set-up: species or system Sprague-Dawley rat. To be noted: competition vs 0.5 nM [3H]CP55,940, rat brain cortex membranes, one-site fit; read-out: IC50. Here is the method: Sprague–Dawley rats (n = 5) were anesthetized and sacrificed by decapitation. Spleens and brains were then quickly removed by dissection at 4 °C, and in the case of the brain tissue, the cortex was dissected for the preparation of the membrane homogenates. For this procedure, spleen and cortex samples were homogenized using a Teflon-glass grinder (15 up-and-down strokes at 800 rpm) in 30 volumes of homogenization buffer (1 mM EGTA, 3 mM MgCl2, 50 mM Tris–HCl; pH 7.4) supplemented with […], at 4 °C. The obtained homogenates were centrifuged for 5 min at 1500 rpm. Pellets were removed, and supernatants were centrifuged again for 15 min at 14,000 rpm. For washing, the obtained pellets were resuspended in a buffer and centrifuged again, and the supernatant was removed. The resulting aliquots were stored at −80 °C until use.
To stop the reaction, an ice-cold wash buffer (50 mM Tris–HCl and 0.5% BSA, pH 7.4) was added. Then, the membranes were retained by vacuum filtration to a Whatman GF/C glass microfiber filter (Sigma-Aldrich, St. Louis, MO, USA) and the free radioligand was discarded. Filters with the bound radioligand were transferred to vials containing 5 mL of Ultima Gold cocktail (Revvity, Boston, MA, USA) and measured with a Packard Tri-Carb 2200CA liquid scintillation counter (Revvity, Boston, MA, USA).
Data from radioligand affinity assays were analyzed by using nonlinear regression. A comparison of fits was performed for every curve and the preferred model (one site vs two sites) was chosen in each case. Curves were fitted to the pooled data from multiple experiments. For the evaluation of data from autoradiographic assays, the Kruskal–Wallis test followed by Dunn’s post hoc tests for multiple comparisons was performed. For statistical significance, the threshold was set at p = 0.05. The number of replicates or animal sample number used in each case is stated in the figure legends. GraphPad Prism 9 (GraphPad Software) was employed for data analysis and presentation.
On to `CCOC(=O)/C=C1\C(=O)Nc2ccc(F)cc2-c2c1c1cc(C)ccc1n2C(=O)OCC` [UVI3503], for which the 50% inhibitory concentration (IC50) was above 10 µM.

`O=C(O)CC1C(=O)Nc2ccccc2-c2[nH]c3ccccc3c21` (stereo not shown) [UVI3504]: the concentration for half-maximal inhibition (IC50) is 5.908 ± 0.00718 µM.

As to `CCOC(=O)CC1C(=O)Nc2ccccc2-c2[nH]c3ccccc3c21` (stereo not shown) [UVI3505], the IC50 came out at 0.00885 ± 0.0146 µM.

For the molecule `O=C(O)/C=C1\C(=O)Nc2ccccc2-c2[nH]c3ccccc3c21` [UVI3506], the IC50 was 7.041 ± 0.018 µM.

Consider `CCOC(=O)/C=C1\C(=O)Nc2ccccc2-c2c1c1ccccc1n2C(=O)OCC` [UVI3508], for which the half-maximal inhibitory concentration (IC50) stood at 310 µM.

Turning to `COc1ccc2[nH]c3c(c2c1)/C(=C/C(=O)O)C(=O)Nc1ccc(C)cc1-3` [UVI3509], the half-inhibitory concentration (IC50) was above 10 µM.

On to `CCOC(=O)CC1c2c([nH]c3ccccc23)-c2ccccc2-n2c(C)nnc21` (stereo not shown) [UVI8113], for which the IC50 came out at 0.0106 µM.

As usually defined, the IC50 is the concentration that gives 50% inhibition.
